Results as given in paper PMC11744668, “2-Cyanopyrimidine-Containing Molecules for N-Terminal Selective Cyclization of Phage-Displayed Peptides” (ACS Chemical Biology, 2025).
Entries after “also recorded” stand apart in the source; their conditions may differ. Starred links: 1 amine or outer side, 2 acyl side, 3 side chain; linkers in the order of their positions; H or OH if unused. Positions of bridges follow the written chain, without caps; N, C: chain ends. Non-standard residues stand in square brackets, D forms with d. Residues, ends and D or L forms follow the SMILES beside them. No end group written: not given here. X2 = O=C([C@@H]1CSC(c2nccc(N[*:1])n2)=N1)[*:2]; Abu = CC[C@H](N)C(=O)O

Tests used:
[1] = biological target: T1, ZNRF3 extracellular domain (ZNRF3-ECD) (Homo sapiens, UniProt Q9ULT6); assay: Phage selection against ZNRF3-ECD, NGS enrichment, mCAmCP-cyclized library; assay type: binding
T1 construct: The ZNRF3 ECD was expressed and characterized exactly as previously described; SUMO (N, cleaved yes); made in house; host or cells: E. coli BL21, co-expressing BirA
T1 sequence (Q9ULT6 56-219 limits assumed): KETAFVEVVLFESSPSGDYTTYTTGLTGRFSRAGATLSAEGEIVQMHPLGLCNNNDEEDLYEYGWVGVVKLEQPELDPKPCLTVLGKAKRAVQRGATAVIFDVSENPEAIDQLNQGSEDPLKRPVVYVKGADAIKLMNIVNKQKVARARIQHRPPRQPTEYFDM
Excerpt: In addition to simply ensuring the cyclization potential on phage, we also looked to investigate the selection differences using two different linkers to macrocyclize the same initial peptide library. ZNRF3 is a membrane protein that contains an intracellular E3 ligase domain and has previously shown potential in promoting degradation of oncogenic membrane proteins, such as PDL1.[32] ZNRF3 also plays a major role in the regulation of the Wnt signaling cascade, which can modulate a variety of cell processes related to oncogenesis and cell differentiation.[33]−[36] […] Because it has an extracellular domain that can be easily accessible to macrocyclic peptides, we envisioned that a selection against the extracellular domain for ZNRF3 (ZNRF3-ECD) would afford peptides that could potentially be used in the development of proteolysis-targeting chimeras (PROTACs) for a variety of membrane proteins. We expressed and characterized a biotinylated ZNRF3-ECD using an Avi-Tag on the […] to facilitate the selection using streptavidin magnetic beads, as has been previously described (Figure S20).[38] […] To avoid the potential for enriching peptides that bind to the streptavidin resin, we alternated loading the protein using streptavidin and NHS-functionalized magnetic beads for the first three rounds of selection (Figure 5).
The purified phage library (10^11 to 10^12 cfu) in binding buffer was incubated with 1 mM TCEP at 37 °C. After 30 min, the linker (pCAmCP or mCAmCP, 10 mM in DMSO) was added to a final concentration of 100 μM. The solution was incubated for 24 h at RT with slow rotation. The library was then directly used for affinity selection without further purification.
Streptavidin-coated magnetic beads (100 μL, 50% slurry, Cytiva Sera-Mag) were transferred to a 1.5 mL tube, washed three times with 1 mL of binding buffer (10 mM HEPES, 150 mM NaCl, 10 mM MgCl2, and 1 mM KCl, pH 7.4), resuspended in 100 μL of binding buffer, and split into two tubes. […]

[2] = Solubility observation for synthesized peptides; assay type: physicochemical; conditions: observed at synthesis / BLI testing
[3] = biological target: T1, ZNRF3 extracellular domain (ZNRF3-ECD); assay: Biolayer interferometry (BLI) binding to immobilized biotinylated ZNRF3-ECD; conditions: pH 7.5, dissociation over 5 min
Description: The ZNRF3 ECD was expressed and characterized exactly as previously described.[38] Plasmid pET28a-SUMO-ZNRF3-Avi was cotransformed into E. coli (BL21) along with a plasmid expressing BirA. The cells were then inoculated into 2× YT containing 50 μg/mL kanamycin and 34 μg/mL chloramphenicol and grown at 37 °C until OD = 0.5. Expression was then induced by the addition of 1 mM IPTG and 50 μM biotin, and then the protein was expressed for 18 h at 16 °C. The cells were then pelleted (3750g, 15 min) and then resuspended in buffer A (50 mM Tris-HCl, 10% glycerol, 150 mM NaCl, and 25 mM imidazole, pH 7.5, 20 mL/liter of expression). The cells were then lysed by sonication (1 s on, 1 s off, 5 min, 60% A, repeated once), and the lysate was clarified by centrifugation (25,000g, 20 min). The supernatant was then incubated with a Ni-NTA column for 45 min at 4 °C. The column was then washed with 5 CV of buffer A before being eluted using 2 CV of buffer B (buffer A + 240 mM imidazole). The elution was then concentrated using an Amicon centrifugal filter before being desalted into buffer A on a HiPrep 26/10 column. The SUMO tag was then cleaved by the addition of 30 μg/mL SUMO protease and incubation for 48 h at 4 °C. The protein was then loaded onto a second Ni-NTA column for 45 min at 4 °C, and the flowthrough was collected and concentrated to 1 mL by centrifugation. Pure protein was then isolated using size exclusion chromatography (HiLoad 16/600, Superdex 75 pg) in buffer C (50 mM Tris-HCl, pH 7.5, 10% (v/v) glycerol, 150 mM NaCl, and 0.5 mM EDTA). Pure protein was stored in storage buffer (50 mM Tris-HCl, pH 7.5, 50% (v/v) glycerol, and 150 mM NaCl) at −80 °C before being used for assays.
Biolayer interferometry (BLI) experiments were performed using streptavidin-coated biosensors (Sartorius Bio) on an Octet R8 biolayer interferometer (Sartorius Bio). All experiments were performed in assay buffer (10 mM HEPES, 150 mM NaCl, and 0.01% Tween 20, pH 7.5). Biotinylated ZNRF3 (28 μg/mL in assay buffer) was loaded onto the sensor to 4 nm of loading over 10 min, and then the sensors were quenched for one min with a 1% BSA solution in assay buffer. Peptides were serially diluted in assay buffer containing 0.8% DMF, and the association and dissociation to ZNRF3 were measured over 3 and 5 min, respectively. Between each experiment, sensors were regenerated using 10 mM glycine, pH 1.5. Binding curves were double-referenced against a protein-only sensor and a parallel unloaded sensor to correct for any nonspecific binding to the sensors. All curves were fit in the Octet Kinetic Analysis program (Sartorius Bio) using a 1:1 protein/ligand binding model.

[4] = Chloroacetamide addition kinetics with N-terminal Abu peptide CGK-5Abu; conditions: 500 μM peptide; CGK-5Abu vs CGK-5
Excerpt: While pCAmCP and mCAmCP gave efficient cyclization of the peptide fusion of sfGFP, we looked to further investigate the specificity of the reaction using peptide kinetic assays. To do this, we first established reactivity of the compounds with a model peptide (CGK-5, Figures 3A and S16) that was composed of two cysteines flanking a region tuned for solubility in buffer (GGKGG) and with a tryptophan residue on the C-terminus for UV absorbance. […] To test the specificity of the reaction for the N-terminal cysteine, we synthesized a peptide analogue (CGK-5Abu, Figures 3D–F and S17) that contained 2-aminobutyric acid in place of the N-terminal cysteine. […] Since these reactions occurred at 500 μM of peptide to allow for analysis on the HPLC, we envision this difference will likely be exaggerated when using lower peptide/protein concentrations. Although it is unlikely at neutral pH, the chloroacetamide moiety can possibly react with nucleophilic amino acids other than cysteine. […]
The peptide (CGK-5 or CGK-5Abu, 5 mM stock in water) was diluted to 500 μM in ammonium bicarbonate buffer (50 mM, pH 7.5) containing 1.2 mM TCEP. […] Following dilution with 20 μL of water, the sample was then analyzed on a Shimadzu HPLC with an LCMS-2020 mass spectrometer attached (10–40% ACN gradient in H2O over 6 min, 0.1% formic acid, 1 mL/min flow rate, Shimadzu C18 250 × 4.6 mm, 5 μm). […]

[5] = biological target: T2, ZNRF3 extracellular domain (biotinylated) (UniProt Q9ULT6 56-219, biotin (on the Avi-Tag; co-expression with BirA and 50 uM biotin)); assay: BLI; biotinylated ZNRF3-ECD loaded on streptavidin biosensors (Octet R8); peptides serially diluted in 10 mM HEPES, 150 mM NaCl, 0.01% Tween 20, pH 7.5 with 0.8% DMF; association 3 min, dissociation 5 min; double-referenced; 1:1 binding model; conditions: both partners purified
T2 construct: ZNRF3, extracellular domain; also called ZNRF3-ECD; ZNRF3 ECD; source: E. coli (BL21), co-expressed with BirA, purified (Ni-NTA, SUMO protease, second Ni-NTA, SEC Superdex 75); not shown: Avi-Tag, N-terminal, kept
T2 sequence (looked up): T1 sequence (Q9ULT6 56-219 limits assumed)

Molecule: CELVMMHGYWWRQC (also: sidechain bridge or staple (positions not given here)) [Peptide Z28S2, peptide enriched in the mCAmCP selection]
- fold increase in abundance after round 2 ([1]; after round 2): ~5000 -fold
- solubility (in words) [2]: poor solubility during synthesis

Molecule: CSCC[C@@H]1NC(=O)[C@H](CC(C)C)NC(=O)[C@H](CC(N)=O)NC(=O)[C@H](CCC(=O)O)NC(=O)[C@H](Cc2c[nH]c3ccccc23)NC(=O)[C@H](CC(N)=O)NC(=O)[C@H](CC(C)C)NC(=O)[C@H](CCCNC(=N)N)NC(=O)[C@H](CC(C)C)NC(=O)[C@H](Cc2ccccc2)NC(=O)[C@@H]2CSC(=N2)c2nccc(n2)NC(=O)CSC[C@@H](C(N)=O)NC(=O)[C@H](Cc2c[nH]c3ccccc23)NC(=O)[C@@H]2CCCN2C1=O [Peptide Z28S1] ({CH2CO}-[X2]FLRLNWENLMPWC-NH2; thioether N-14; C-terminus assumed)
- off rates (in words) [3]: high off rates; also recorded: extremely quick off rates
- fold enrichment after round 1 ([1]; after round 1): over 32,000 -fold
- share of total sequences after round 4 ([1]; round 4, 84,190 total sequences): 81%

Molecule: [Abu]GGKGGCGW [CGK-5Abu, peptide analogue with 2-aminobutyric acid in place of the N-terminal cysteine]
- rate of reaction relative to the cyclization reaction, fold slower [4]: ~3 -fold slower

B1: Z27S1Abu (linear analogue of Z27S1) (peptide)
chain: [Abu]HLSPLEAWRQKL[Abu]
- Kd [5]: 2.6 µM
